Data on 18 compounds can be found in ChEMBL document CHEMBL3217501, “Synthesis and biological evaluation of tetrazole containing compounds as possible anticancer agents” (Medchemcomm, 2011).

By IC50 is commonly meant the concentration needed to halve the response being measured.

Test [1] deals with HepG2. As to the kind of experiment: Cytotoxicity against human HepG2 cells assessed as growth inhibition after 48 hrs by SRB assay. To be noted: HepG2, 48 h. Type of test: functional, cell-based. On the technique in general: Sulforhodamine B stains cellular protein and so reports cell mass.
The subject of test [2] is SK-N-SH. As to the kind of experiment: Cytotoxicity against human SK-N-SH cells assessed as growth inhibition after 48 hrs by SRB assay. The class given is functional, cell-based.
The subject of test [3] is MDA-MB-231. As to the kind of experiment: Cytotoxicity against human MDA-MB-231 cells assessed as growth inhibition after 48 hrs by SRB assay. The class given is functional, cell-based. The note with it: MDA-MB-231, 48 h.
Test [4] concerns A549. Description: Cytotoxicity against human A549 cells assessed as growth inhibition after 48 hrs by SRB assay. The class given is functional, cell-based. The note with it: A549, 48 h.
Test [5] concerns DU-145. As to the kind of experiment: Cytotoxicity against human DU145 cells assessed as growth inhibition after 48 hrs by SRB assay. The class given is functional, cell-based. The note with it: DU-145, 48 h.
Test [6] relates to Calf thymus DNA. As to the kind of experiment: Binding affinity to calf thymus DNA assessed as compound-DNA complex formation by UV-Vis absorption spectroscopic analysis. The class given is nucleic-acid assay. The note with it: Bos taurus.
Test [7] relates to Calf thymus DNA. Description: Binding affinity to calf thymus DNA by fluorescence spectroscopic analysis. The class given is nucleic-acid assay. To be noted: Bos taurus.

Activity calls are given as the source filed them. The rule behind the calls is not given here. Some results are limits rather than exact numbers.

Regarding `COC(=O)/C(=C/c1ccc(C)cc1)Cn1cnnn1`, the half-maximal inhibitory concentration (IC50) was found to be 10.7 µM in test [1]; 71.7 µM in test [2]; 62.6 µM in test [3]; 16 µM in test [4]; 8.42 µM in test [5].
On the same counts, the results for `Cc1nnnn1C/C(C#N)=C/c1ccc(F)cc1` are 7.29 µM, 20.2 µM, 28.8 µM, 6.4 µM and 7.19 µM.
On the same counts, the results for `Cc1ccc(/C=C(\C#N)Cn2cnnn2)cc1` are 6.56 µM, 20.1 µM, 25.7 µM, 7.95 µM and 7.3 µM.
The matching figures for `CCOC(=O)/C(=C/c1ccc(Br)cc1)Cn1cnnn1`: 4.89 µM, 27.3 µM, 18.9 µM, 4.78 µM and 5.5 µM.
In the case of `COC(=O)/C(=C/c1ccc(OC)cc1)Cn1cnnn1`, the half-maximal inhibitory concentration (IC50) amounted to 6.65 µM in test [1]; 7.9 µM in test [2]; 21 µM in test [3]; 3.83 µM in test [4]; 5.6 µM in test [5].
For the compound `N#C/C(=C\c1cccc2ccccc12)Cn1cnnn1`, the IC50 came to 7.11 µM in test [1]; 16.9 µM in test [2]; 31.4 µM in test [3]; 5.7 µM in test [4]; 7.36 µM in test [5].
Take `COC(=O)/C(=C/c1ccccc1)Cn1cnnn1`: the 50% inhibitory concentration (IC50) in test [1] stood at 10.7 µM; in test [2], 31.6 µM; in test [3], 16.4 µM; in test [4] it was 7.91 µM; in test [5] it was 9.02 µM.
Turning to `COc1ccc(/C=C(\C#N)Cn2cnnn2)cc1`, the IC50 in test [1] was found to be 27.4 µM; in test [2], 64.2 µM; in test [3] it was 20.3 µM; in test [4], 23.8 µM; in test [5], 19.4 µM.
In the case of `COc1cc([C@@H]2c3cc4c(cc3[C@H](O)[C@H]3COC(=O)[C@H]23)OCO4)cc(OC)c1OC` [PODOFILOX], the IC50 in test [1], in test [2], in test [3], in test [4] and in test [5] was less than 0.1 µM in each case.
With `COC(=O)/C(=C/c1ccc(F)cc1)Cn1cnnn1`, the IC50 in test [1] came to 12.1 µM; in test [2] it was 18.3 µM; in test [3] it was 15.9 µM; in test [4] it was 6.9 µM; in test [5] it was 8.57 µM.
The matching figures for `COC(=O)Nc1nc2cc(C(=O)c3cccs3)ccc2[nH]1` [NOCODAZOLE]: less than 0.1 µM, less than 0.1 µM, less than 0.1 µM, less than 0.1 µM and less than 0.1 µM.
On the same counts, the results for `COC(=O)/C(=C/c1ccccc1[N+](=O)[O-])Cn1cnnn1` are 4.33 µM, 19.8 µM, 43.7 µM, 6.88 µM and 10.2 µM.
On to `N#C/C(=C\c1ccccc1)Cn1cnnn1`, for which the IC50 was found to be 5.83 µM in test [1]; 23.3 µM in test [2]; 18.4 µM in test [3]; 9.99 µM in test [4]; 9.45 µM in test [5].
Take `COC(=O)/C(=C/c1ccc([N+](=O)[O-])cc1)Cn1cnnn1`: the IC50 amounted to 2.07 µM in test [1]; 22.3 µM in test [2]; 9.14 µM in test [3]; 2.84 µM in test [4]; 5.5 µM in test [5].
The matching figures for `N#C/C(=C\c1ccc(C(F)(F)F)cc1)Cn1cnnn1`: 1.65 µM, 11.8 µM, 8.7 µM, 3.51 µM and 5.92 µM.
In the case of `Cc1nnnn1C/C(C#N)=C/c1cccc2ccccc12`, the concentration for half-maximal inhibition (IC50) in test [1] turned out to be 2.6 µM; in test [2], 13.7 µM; in test [3] it was 14.1 µM; in test [4] it was 2.95 µM; in test [5] it was 5.76 µM. In addition, the Kb in test [6] amounted to 0.75 ×10⁵ /M. Further, the outcome in test [7] was Active.
`CCOC(=O)/C(=C/c1ccc(Cl)cc1)Cn1cnnn1`: the IC50 in test [1] was found to be 3 µM; in test [2] it was 28.2 µM; in test [3], 23.9 µM; in test [4], 3.18 µM; in test [5], 8.44 µM.
For the compound `CCOC(=O)/C(=C/c1ccccc1Br)Cn1cnnn1`, the IC50 in test [1] amounted to 3.33 µM; in test [2], 16.3 µM; in test [3], 14.8 µM; in test [4], 5.94 µM; in test [5], 7.79 µM.
